Measured values published in patent publication US7071190B2, “Inhibitors to tubulin polymerization” (Rigel Pharmaceuticals, Inc., priority 2002, dated 2006).
Where two headings read alike, the source gives them in different places.

Tested on: A549 cells
Assay: Bromodeoxyuridine (BrdU) proliferation assay
Format: cell-based, human
Conditions: for IC50: BrdU ELISA 48 hours after addition of compound, tested 0.03-10 uM, cell line not given (A549 method; SW-480 and MDA-MB-231 also used), read-out: Assay Result (IC50μM); for Activity ranking: particularly active examples of the compounds of the invention / Activity ranking: most active compounds of the invention: antiproliferative activity
Procedure: In order to determine the antiproliferative activity of microtubule inhibitors, A549 cells were plated in 96 well plates at 2000 cells/well 24 hours prior to the addition of a compound of the invention in 80 ul growth media (F12K, 10% FBS, Pen/Strep). Prior to addition to cells, compounds were solubilized in 100% DMSO to 5 mM and serially diluted in 6 semi-log steps in 100% DMSO. The diluted compounds were added to cells by two 15.8-fold dilution steps, the first being a dilution into a 23% ethanol/H2O mixture and the second being a dilution into growth media. Finally, these dilutions were followed by a 1:1 dilution onto cells. The resulting final solvent concentration was 0.2% DMSO/0.75% ethanol. Compounds were tested at final concentrations of 10, 3, 1, 0.3, 0.1 and 0.03 uM. Forty-eight hours after the addition of compound, the effects on cellular proliferation were measured using a cell proliferation BrdU ELISA (Roche Molecular Biochemicals, Cat.#1 669 915).

SMILES	IC50 (Homo sapiens, A549, 48 h)	Activity ranking: particularly active examples of the compounds of the invention	Activity ranking: most active compounds of the invention	IC50
S=C(NCCc1ccccc1)NNc1ncnc2cc(-c3ccccc3)sc12 [Compound 58]	1.11 µM	particularly active	–	–
S=C(NNc1ncnc2cc(-c3ccc4c(c3)OCO4)sc12)NC1CC1 [Compound 56]	–	particularly active	–	–
S=C(NNc1ncnc2cc(-c3ccccc3)sc12)NC1CCCC1 [Compound 20]	0.071 µM	particularly active	most active	–
S=C(NCc1ccco1)NNc1ncnc2cc(-c3ccccc3)sc12 [Compound 69]	0.093 µM	particularly active	most active	–
CCOC(=O)c1ccccc1NC(=S)NNc1ncnc2cc(-c3ccccc3)sc12 [Compound 10]	1.33 µM	particularly active	–	–
S=C(NCCN1CCCCC1)NNc1ncnc2cc(-c3ccccc3)sc12 [Compound 67]	18.6 µM	particularly active	–	–
Cc1cc(C)cc(-c2cc3ncnc(NNC(=S)NCC4CCCO4)c3s2)c1 (stereo not drawn) [Compound 98]	0.025 µM	particularly active	most active	–
S=C(NC[C@H]1CCCO1)NNc1ncnc2cc(-c3ccccc3)sc12 [Compound 64]	0.188 µM	particularly active	most active	–
COc1ccc(NC(=S)NNc2ncnc3cc(-c4ccccc4)sc23)c(OC)c1 [Compound 13]	–	particularly active	most active	0.38 µM
COCCNC(=S)NNc1ncnc2cc(-c3cc(C)cc(C)c3)sc12 [Compound 100]	0.013 µM	particularly active	most active	–
CNC(=S)NNc1ncnc2cc(-c3ccccc3)sc12 [Compound 70]	1.61 µM	particularly active	–	–
Cc1ccc(-c2cc3ncnc(NNC(=S)Nc4ccccc4)c3s2)cc1 [Compound 31]	0.369 µM	particularly active	most active	–
Cc1cccc(-c2cc3ncnc(NNC(=S)NCCCO)c3s2)c1 [Compound 48]	1.43 µM	particularly active	–	–
NC(=S)NNc1ncnc2cc(-c3ccccc3)sc12 [Compound 26]	5.75 µM	particularly active	–	–
COc1cc([N+](=O)[O-])ccc1NC(=S)NNc1ncnc2cc(-c3ccccc3)sc12 [Compound 18]	–	particularly active	–	10.7 µM
Cc1cc(C)cc(-c2cc3ncnc(NNC(=S)NC(C)C)c3s2)c1 [Compound 99]	0.086 µM	particularly active	most active	–
Cc1cccc(-c2cc3ncnc(NNC(=S)NC[C@@H]4CCCO4)c3s2)c1 [Compound 80]	0.151 µM	particularly active	most active	–
COCCNC(=S)NNc1ncnc2cc(-c3ccc4c(c3)OCO4)sc12 [Compound 102]	0.385 µM	particularly active	most active	–
Cc1cccc(-c2cc3ncnc(NNC(=S)NC(C)C)c3s2)c1 [Compound 86]	0.026 µM	particularly active	most active	–
